The test system of data set [1] is Caco-2. Put plainly: Cytotoxic activity against Homo sapiens (human) Caco2 cells incubated for 4 hr followed by compound wash-out measured after doubling time by MTT assay. Type of data set: functional, cell-based. (Tetrazolium assays rely on reduction of a dye to a coloured formazan, in cell work by metabolically active cells.)
In data set [2] the test system is PA-1. Nature of the data set: Cytotoxic activity against Homo sapiens (human) PA1 cells incubated for 4 hr followed by compound wash-out measured after doubling time by MTT assay. Type of data set: functional, cell-based.
In data set [3] the test system is Caco-2. Nature of the data set: Cytotoxic activity against Homo sapiens (human) Caco2 cells by clonogenic assay. Type of data set: functional, cell-based.
The test system of data set [4] is Bacopa monnieri. Nature of the data set: Toxicity against Bacopa monnieri assessed as shoot elongation at 50 ug/ml after 15 days by Bacopa sensor test (reference value: 0.8 cm). Type of data set: organism-based. The following applies: in vivo, 360 h.
Data set [5] has as its system PA-1. Nature of the data set: Cytotoxic activity against Homo sapiens (human) PA1 cells by clonogenic assay. It counts as functional, cell-based.
The subject of data set [6] is Bacopa monnieri. Nature of the data set: Toxicity against Bacopa monnieri assessed as change in leaf colour at 50 ug/ml after 15 days by Bacopa sensor test. The following applies: in vivo, 360 h. It counts as organism-based.
Data set [7] deals with COLO 320. Nature of the data set: Cytotoxic activity against Homo sapiens (human) COLO320 cells incubated for 4 hr followed by compound wash-out measured after doubling time by MTT assay. It counts as functional, cell-based.
Data set [8] relates to COLO 320. Nature of the data set: Cytotoxic activity against Homo sapiens (human) COLO320 cells by clonogenic assay. It counts as functional, cell-based.
The subject of data set [9] is Bacopa monnieri. Put plainly: Toxicity against Bacopa monnieri assessed as number of shoots at 50 ug/ml after 15 days by Bacopa sensor test (reference value: 2). It counts as organism-based. The following applies: in vivo, 360 h.
Data set [10] has as its system Bacopa monnieri. Nature of the data set: Toxicity against Bacopa monnieri assessed as number of leaves at 50 ug/ml after 15 days by Bacopa sensor test (reference value: 6). It counts as organism-based. The following applies: in vivo, 360 h.
The subject of data set [11] is Bacopa monnieri. Nature of the data set: Toxicity against Bacopa monnieri assessed as number of roots at 50 ug/ml after 15 days by Bacopa sensor test (reference value: 2). Type of data set: organism-based. The following applies: in vivo, 360 h.
The subject of data set [12] is COLO 320. Nature of the data set: Ratio of vinblastine IC50 to compound IC50 for Homo sapiens (human) COLO320 cells by MTT assay. Type of data set: functional.
Data set [13] relates to MCF7. Put plainly: Cytotoxic activity against Homo sapiens (human) MCF7 cells incubated for 4 hr followed by compound wash-out measured after doubling time by MTT assay. It counts as functional, cell-based.
Data set [14] deals with MCF7. Put plainly: Cytotoxic activity against Homo sapiens (human) MCF7 cells by clonogenic assay. Type of data set: functional, cell-based.
The test system of data set [15] is WRL68. Nature of the data set: Cytotoxic activity against Homo sapiens (human) WRL68 cells by clonogenic assay. It counts as functional, cell-based.
In data set [16] the test system is WRL68. Nature of the data set: Ratio of vinblastine IC50 to compound IC50 for Homo sapiens (human) WRL68 cells by MTT assay. Type of data set: functional.
Data set [17] has as its system WRL68. Nature of the data set: Cytotoxic activity against Homo sapiens (human) WRL68 cells incubated for 4 hr followed by compound wash-out measured after doubling time by MTT assay. Type of data set: functional, cell-based.
Where [18] appears, read: Homo sapiens, Caco-2, 4 h, read-out: IC50.
[19] abbreviates: Homo sapiens, PA-1, 4 h, read-out: IC50.
Where [20] appears, read: Homo sapiens, COLO 320, 4 h, read-out: IC50.
[21] abbreviates: Homo sapiens, MCF7, 4 h, read-out: IC50.
Setting [22] is: Homo sapiens, WRL68, 4 h, read-out: IC50.

Values after ≈ are worked out from the molar mass of the structure shown.

Regarding `CC[C@]1(O)C[C@@H]2CN(CCc3c([nH]c4ccccc34)[C@@](C(=O)OC)(c3cc4c(cc3OC)N(C)[C@H]3[C@@](O)(C(=O)OC)[C@H](OC(C)=O)[C@]5(CC)C=CCN6CC[C@]43[C@@H]65)C2)C1` [VINBLASTINE], the IC50 (in general, the concentration that gives 50% inhibition) with Caco-2 [1] (setting [18]) was determined as 0.46 µg/mL (≈ 0.567 µM); in the data set on PA-1 [2] (setting [19]) it was 0.03 µg/mL (≈ 0.037 µM); in the data set on Caco-2 [3], 2.8 µg/mL (≈ 3.45 µM); with PA-1 [5], 0.15 µg/mL (≈ 0.185 µM); with COLO 320 [7] (setting [20]), 0.52 µg/mL (≈ 0.641 µM); in the data set on COLO 320 [8], 1.6 µg/mL (≈ 1.97 µM). Further, the Activity in the data set on Bacopa monnieri [4] is 0.6 cm; in the data set with Bacopa monnieri [6] it was “Non-toxic”; in the data set with Bacopa monnieri [9] it was 2; in the data set on Bacopa monnieri [10], 6; with Bacopa monnieri [11], 2.

As for `CCCCCCCCCCCC(=O)OC[C@H]1O[C@@H](O[C@@H]2OC=C(C(=O)OC)[C@H]3C[C@H](OC(C)=O)[C@H](C)[C@@H]23)[C@H](OC(C)=O)[C@@H](OC(C)=O)[C@@H]1OC(C)=O`, the half-maximal inhibitory concentration (IC50) was found to be 0.42 µg/mL (≈ 0.567 µM) with Caco-2 [1] (setting [18]); 0.15 µg/mL (≈ 0.202 µM) with PA-1 [2] (setting [19]); 1.24 µg/mL (≈ 1.67 µM) with Caco-2 [3]; 0.42 µg/mL (≈ 0.567 µM) in the data set with PA-1 [5]; 0.24 µg/mL (≈ 0.324 µM) in the data set on MCF7 [13] (setting [21]); 0.75 µg/mL (≈ 1.01 µM) with MCF7 [14]. For the same compound, the half-inhibitory concentration (IC50) in the data set on COLO 320 [7] (setting [20]) amounted to 0.04 µg/mL (≈ 0.054 µM); with WRL68 [15], 2.62 µg/mL (≈ 3.54 µM); in the data set with COLO 320 [8], 0.24 µg/mL (≈ 0.324 µM); in the data set on WRL68 [17] (setting [22]) it was 0.85 µg/mL (≈ 1.15 µM). Further, the “Ratio IC50” value with COLO 320 [12] is listed as 13; in the data set with WRL68 [16], 2. The Activity in the data set with Bacopa monnieri [4] is recorded as 0 cm; in the data set on Bacopa monnieri [6] it was “Non-toxic”; in the data set with Bacopa monnieri [9], 2; in the data set on Bacopa monnieri [10], 6; in the data set on Bacopa monnieri [11], 3.

Consider `C=CC(=O)OC[C@H]1O[C@@H](O[C@@H]2OC=C(C(=O)OC)[C@H]3C[C@H](OC(C)=O)[C@H](C)[C@@H]23)[C@H](OC(C)=O)[C@@H](OC(C)=O)[C@@H]1OC(C)=O`, for which the IC50 result in the data set with Caco-2 [1] (caco-2), with PA-1 [2] (pa-1), in the data set on MCF7 [13] (mcf7), with COLO 320 [7] (colo 320) and with WRL68 [17] (wrl68) was “Not Active” in each case.

In the case of `CCC(=O)OC[C@H]1O[C@@H](O[C@@H]2OC=C(C(=O)OC)[C@H]3C[C@H](OC(C)=O)[C@H](C)[C@@H]23)[C@H](OC(C)=O)[C@@H](OC(C)=O)[C@@H]1OC(C)=O`, the half-maximal inhibitory concentration (IC50) in the data set with Caco-2 [1] (setting [18]) was determined as 2.85 µg/mL (≈ 4.64 µM); in the data set on PA-1 [2] (setting [19]) it was 1.24 µg/mL (≈ 2.02 µM); with Caco-2 [3] it was 4.88 µg/mL (≈ 7.94 µM); with PA-1 [5], 2.85 µg/mL (≈ 4.64 µM); in the data set with MCF7 [13] (setting [21]), 1.88 µg/mL (≈ 3.06 µM); in the data set with MCF7 [14], 4.26 µg/mL (≈ 6.93 µM). Also, the IC50 was 0.85 µg/mL (≈ 1.38 µM) in the data set with COLO 320 [7] (setting [20]), 8.4 µg/mL (≈ 13.7 µM) in the data set with WRL68 [15], 4.86 µg/mL (≈ 7.91 µM) in the data set on COLO 320 [8] and 2.65 µg/mL (≈ 4.31 µM) with WRL68 [17] (setting [22]). In addition, the Activity is on record as 0.65 cm in the data set with Bacopa monnieri [4]; “Non-toxic” in the data set with Bacopa monnieri [6]; 2 with Bacopa monnieri [9]; 4 with Bacopa monnieri [10]; 2 in the data set on Bacopa monnieri [11].

For the compound `COC(=O)C1=CO[C@@H](O[C@@H]2O[C@H](CO)[C@@H](O)[C@H](O)[C@H]2O)[C@@H]2[C@@H](C)[C@@H](O)C[C@H]12` [LOGANIN], the IC50 with Caco-2 [1] (setting [18]) was found to be 1.28 µg/mL (≈ 3.28 µM); with PA-1 [2] (setting [19]), 1.45 µg/mL (≈ 3.71 µM); in the data set with Caco-2 [3], 3.45 µg/mL (≈ 8.84 µM); in the data set with PA-1 [5] it was 4.85 µg/mL (≈ 12.4 µM); in the data set with MCF7 [13] (setting [21]) it was 4.85 µg/mL (≈ 12.4 µM); with MCF7 [14] it was 6.45 µg/mL (≈ 16.5 µM). The half-maximal inhibitory concentration (IC50) in the data set with COLO 320 [7] (setting [20]) worked out at 1 µg/mL (≈ 2.56 µM); in the data set on WRL68 [15] it was 3.2 µg/mL (≈ 8.2 µM); with COLO 320 [8], 2.2 µg/mL (≈ 5.64 µM); in the data set with WRL68 [17] (setting [22]), 1.86 µg/mL (≈ 4.76 µM). In addition, the Activity with Bacopa monnieri [4] is on record as 0.4 cm; in the data set with Bacopa monnieri [6], “Non-toxic”; in the data set with Bacopa monnieri [9], 2; in the data set with Bacopa monnieri [10], 6; in the data set with Bacopa monnieri [11], 2.

Consider `COC(=O)C1=CO[C@@H](O[C@@H]2O[C@H](COC(c3ccccc3)(c3ccccc3)c3ccccc3)[C@@H](O)[C@H](O)[C@H]2O)[C@@H]2[C@@H](C)[C@@H](O)C[C@H]12` [6'-O-TRITYL LOGANIN], for which the IC50 in the data set with Caco-2 [1] (setting [18]) amounted to 0.56 µg/mL (≈ 0.885 µM); in the data set with PA-1 [2] (setting [19]) it was 0.65 µg/mL (≈ 1.03 µM); in the data set with Caco-2 [3] it was 2.54 µg/mL (≈ 4.01 µM); in the data set on PA-1 [5], 2.42 µg/mL (≈ 3.82 µM); in the data set with MCF7 [13] (setting [21]), 1 µg/mL (≈ 1.58 µM); with MCF7 [14] it was 2.8 µg/mL (≈ 4.43 µM). The IC50 turned out to be 0.25 µg/mL (≈ 0.395 µM) in the data set with COLO 320 [7] (setting [20]), 4.2 µg/mL (≈ 6.64 µM) with WRL68 [15], 1.4 µg/mL (≈ 2.21 µM) in the data set with COLO 320 [8] and 1.86 µg/mL (≈ 2.94 µM) in the data set with WRL68 [17] (setting [22]). Besides, the Activity in the data set with Bacopa monnieri [4] is 0.4 cm; in the data set with Bacopa monnieri [6] it was “Non-toxic”; in the data set on Bacopa monnieri [9], 2; in the data set with Bacopa monnieri [10], 6; in the data set on Bacopa monnieri [11] it was 2.

In the case of `COc1cccc2c1C(=O)c1c(O)c3c(c(O)c1C2=O)C[C@@](O)(C(=O)CO)C[C@@H]3O[C@H]1C[C@H](N)[C@H](O)[C@H](C)O1` [DOXORUBICIN], the Activity is 0.2 cm in the data set with Bacopa monnieri [4]; “Toxic” in the data set on Bacopa monnieri [6]; 1 with Bacopa monnieri [9]; 2 in the data set with Bacopa monnieri [10]; 0 in the data set with Bacopa monnieri [11].

For the origin of these results see ChEMBL document CHEMBL3045094, “A cytotoxic agent from Strychnos nux-vomica and biological evaluation of its modified analogues” (Med Chem Res, 2012).
